Experimental data taken from patent US7604978B2, “Inhibition of biofilm formation” (Sequoia Sciences, Inc., priority 2004, dated 2009).

Legend:
Format in all cases: cell-based
P. aeruginosa PAO1 = assay: Inhibition of biofilm formation (biofilm mass, OD540)
Procedure: (§1) Inhibition of biofilm formation by E. coli K12 [R1drd19], P. aeruginosa PAO1, and V harveyi BB120 by the addition of 10 μg/mL ursolic acid. For E. coli K12 [R1drd19], data were collected 16 hours after addition of ursolic acid to a 24 hour biofilm in LB medium; for P. aeruginosa PAO1, data were collected 18 hours after addition of ursolic acid with inoculation in LB medium plus 1% sodium citrate; and for V. harveyi BB120, data were collected 18 hours after addition of ursolic acid with inoculation in M9 medium. All biofilm mass readings at OD540 were normalized based on the reading of wild type without ursolic acid which was normalized to 1. One standard deviation is shown.

V. harveyi BB120 = assay: as above
Procedure: as §1

E. coli K12 [R1drd19] = assay: as above
Procedure: as §1

E. coli JM109 = assay: Inhibition of air-liquid interface biofilm; settings: added with inoculation, E. coli JM109 in LB 0.2% glucose
Procedure: as §1
Example 1 was repeated, except ursolic acid was added with inoculation in E. coli JM109 grown in LB 0.2% glucose.

E. coli K12 genes = assay: DNA microarray, genes repressed by ursolic acid
Procedure: To identify the genes controlled by ursolic acid, E. coli K12 was grown in LB medium overnight, diluted 1:100 in fresh LB supplemented with 0, 10, or 30 μg/mL ursolic acid. The same amount of ethanol was supplemented to eliminate solvent effects. The cultures were grown to an OD600 of 0.9. The cells were centrifuged in a microcentrifuge for 15 seconds at 20,000×g in mini bead beater tubes (Biospec, Bartlesville, Okla.) that were cooled to −80° C. before sampling. The cell pellets were flash frozen in a dry ice-ethanol bath and stored at −80° C. until RNA isolation.
To lyse the cells, 1.0 mL RLT buffer (Qiagen, Inc., Valencia, Calif.) and 0.2 mL 0.1 mm zirconia/silica beads (Biospec) were added to the frozen bead beater tubes containing the cell pellets. The tubes were closed tightly and beat for 30 seconds at the maximum speed in a mini bead beater (cat. no. 3110BX, Biospec). The total RNA was isolated by following the protocol of the RNeasy Mini Kit (Qiagen) including an on-column DNase digestion with RNase-free DNase I (Qiagen). OD260 was used to quantify the RNA yield. OD260/OD280 and 23S/16S rRNA were measured using a 2100 Bioanalyzer (Agilent Technologies, Palo Alto, Calif.) to check the purity and integrity of RNA (RNeasy Mini handbook, Qiagen).
The E. coli DNA microarrays were prepared as described previously by Wei, Y. et al (Journal of Bacteriology, 2001, 183 (2) p. 545-556). Each gene probe was synthesized by PCR and has the size of the full open reading frame (200-2000 nt). The double-strand PCR products were denatured in 50% dimethyl sulfoxide and spotted onto aminosilane slides (Full Moon Biosystems, Sunnyvale, Calif.) as probes to hybridize with the mRNA-derived cDNA samples. It has been shown that each array can detect 4228 of the 4290 E. coli ORFs. Each gene has two spots per slide.
Briefly, the total RNA from the E. coli K12 samples grown with and without ursolic acid was first converted into labeled cDNA. […] The Cy3-labeled sample without ursolic acid and the Cy5-labeled ursolic acid sample (with 10 or 30 μg/mL ursolic acid) were hybridized on the first slide. Similarly, the Cy5-labeled sample without ursolic acid and the Cy3-labeled ursolic acid sample were hybridized on the second slide. Since each gene has two spots on a slide, the two hybridizations generated eight data points for each gene (four points for the sample without ursolic acid and four points for the ursolic acid sample). The microarray experiments with dye-swapping were repeated for both concentrations of ursolic acid.
The DNA microarrays were incubated in prehybridization solution (3.5×SSC [1×SSC is 0.15 M NaCl plus 0.015 M sodium citrate] [Invitrogen], 0.1% sodium dodecyl sulfate [SDS] [Invitrogen], and 0.1% bovine serum albumin [Invitrogen]) at 45° C. for 20 min. The arrays were rinsed with double-distilled water and were spun dry by centrifugation. Labeled cDNA (6 μg) was concentrated to 10 μl of total volume and was mixed with 10 μl of 4×cDNA hybridization solution (Full Moon Biosystems) and 20 μl of formamide (EM Science, Gibbstown, N.J.). The hybridization mix was heated to 95° C. for 2 min and was added to the DNA microarrays; each array was covered with a coverslip (Corning, Big Flats, N.Y.) and was incubated overnight at 37° C. for hybridization. When the hybridization was finished, the coverslips were removed in 1×SSC-0.1% SDS at room temperature, and the arrays were washed once for 5 min in 1×SSC-0.1% SDS at 40° C., twice for 10 min in 0.1×SSC-0.1% SDS at 40° C., and twice for 1 min in 0.1×SSC at 40° C. The arrays were quickly rinsed by dipping in room-temperature double-distilled water and were then spun dry by centrifugation. The hybridized slides were scanned with the Generation III Array Scanner (Molecular Dynamics Corp.). Readings at 570 and 670 nm was used to quantify the probes labeled with Cy3 and Cy5 separately. The signal was quantified with Array Vision 4.0 or 6.0 software (Imaging Research, St. Catherines, Ontario, Canada). […]

C[C@H]1[C@H](C)CC[C@]2(C(=O)O)CC[C@]3(C)C(=CC[C@@H]4[C@@]5(C)CC[C@H](O)C(C)(C)[C@@H]5CC[C@]43C)[C@H]12 [ursolic acid]
formation of biofilms (P. aeruginosa PAO1): reduces or inhibits the formation of biofilms
formation of biofilms (V. harveyi BB120): reduces or inhibits the formation of biofilms
formation of biofilms (E. coli K12 [R1drd19]): reduces or inhibits the formation of biofilms
air-liquid interface biofilm (E. coli JM109): inhibited air-liquid interface biofilm
ER (expression ratio) gene arsC (E. coli K12 genes; 10 μg/mL ursolic acid): −1.5
ER (expression ratio) gene b0309 (E. coli K12 genes; 10 μg/mL ursolic acid): −1.7
ER (expression ratio) gene b0484 (E. coli K12 genes; 10 μg/mL ursolic acid): −1.5
ER (expression ratio) gene b0485 (E. coli K12 genes; 10 μg/mL ursolic acid): −1.8
ER (expression ratio) gene b0829 (E. coli K12 genes; 10 μg/mL ursolic acid): −1.5
ER (expression ratio) gene b1729 (E. coli K12 genes; 10 μg/mL ursolic acid): −5.6
ER (expression ratio) gene b2379 (E. coli K12 genes; 10 μg/mL ursolic acid): −1.5
ER (expression ratio) gene b2789 (E. coli K12 genes; 10 μg/mL ursolic acid): −1.9
ER (expression ratio) gene cspF (E. coli K12 genes; 10 μg/mL ursolic acid): −1.6
ER (expression ratio) gene cspG (E. coli K12 genes; 10 μg/mL ursolic acid): −2.5
ER (expression ratio) gene cysB (E. coli K12 genes; 10 μg/mL ursolic acid): −1.7
ER (expression ratio) gene cysD (E. coli K12 genes; 10 μg/mL ursolic acid): −2.5
ER (expression ratio) gene cysI (E. coli K12 genes; 10 μg/mL ursolic acid): −1.5
ER (expression ratio) gene cysJ (E. coli K12 genes; 10 μg/mL ursolic acid): −3.6
ER (expression ratio) gene cysK (E. coli K12 genes; 10 μg/mL ursolic acid): −3.6
ER (expression ratio) gene frvR (E. coli K12 genes; 10 μg/mL ursolic acid): −5.4
ER (expression ratio) gene gntU_1 (E. coli K12 genes; 10 μg/mL ursolic acid): −1.5
ER (expression ratio) gene hdeA (E. coli K12 genes; 10 μg/mL ursolic acid): −1.7
ER (expression ratio) gene hdeB (E. coli K12 genes; 10 μg/mL ursolic acid): −1.8
ER (expression ratio) gene narH (E. coli K12 genes; 10 μg/mL ursolic acid): −1.6
ER (expression ratio) gene pheM (E. coli K12 genes; 10 μg/mL ursolic acid): −1.6
ER (expression ratio) gene pheP (E. coli K12 genes; 10 μg/mL ursolic acid): −1.5
ER (expression ratio) gene rimL (E. coli K12 genes; 10 μg/mL ursolic acid): −1.5
ER (expression ratio) gene rmf (E. coli K12 genes; 10 μg/mL ursolic acid): −1.5
ER (expression ratio) gene rpml (E. coli K12 genes; 10 μg/mL ursolic acid): −1.6
ER (expression ratio) gene slp (E. coli K12 genes; 10 μg/mL ursolic acid): −1.5
ER (expression ratio) gene ugpB (E. coli K12 genes; 10 μg/mL ursolic acid): −1.4
ER (expression ratio) gene ybhG (E. coli K12 genes; 10 μg/mL ursolic acid): −1.4
ER (expression ratio) gene ybiK (E. coli K12 genes; 10 μg/mL ursolic acid): −2.4
ER (expression ratio) gene yeeD (E. coli K12 genes; 10 μg/mL ursolic acid): −2.3
ER (expression ratio) gene yeeE (E. coli K12 genes; 10 μg/mL ursolic acid): −13
ER (expression ratio) gene yhaD (E. coli K12 genes; 10 μg/mL ursolic acid): −1.6
ER (expression ratio) gene yhaF (E. coli K12 genes; 10 μg/mL ursolic acid): −1.5
ER (expression ratio) gene yhaG (E. coli K12 genes; 10 μg/mL ursolic acid): −2
ER (expression ratio) gene yhaU (E. coli K12 genes; 10 μg/mL ursolic acid): −1.9
ER (expression ratio) gene yjeB (E. coli K12 genes; 10 μg/mL ursolic acid): −1.4
ER (expression ratio) gene arsC (E. coli K12 genes; 30 μg/mL ursolic acid): 1.4
ER (expression ratio) gene b0309 (E. coli K12 genes; 30 μg/mL ursolic acid): −1.3
ER (expression ratio) gene b0484 (E. coli K12 genes; 30 μg/mL ursolic acid): −1.1
ER (expression ratio) gene b0485 (E. coli K12 genes; 30 μg/mL ursolic acid): −1.3
ER (expression ratio) gene b0829 (E. coli K12 genes; 30 μg/mL ursolic acid): −1.5
ER (expression ratio) gene b1729 (E. coli K12 genes; 30 μg/mL ursolic acid): −2
ER (expression ratio) gene b2379 (E. coli K12 genes; 30 μg/mL ursolic acid): 1
ER (expression ratio) gene b2789 (E. coli K12 genes; 30 μg/mL ursolic acid): −2.5
ER (expression ratio) gene cspF (E. coli K12 genes; 30 μg/mL ursolic acid): −1.1
ER (expression ratio) gene cspG (E. coli K12 genes; 30 μg/mL ursolic acid): −1.7
ER (expression ratio) gene cysB (E. coli K12 genes; 30 μg/mL ursolic acid): −1.4
ER (expression ratio) gene cysD (E. coli K12 genes; 30 μg/mL ursolic acid): −2.5
ER (expression ratio) gene cysI (E. coli K12 genes; 30 μg/mL ursolic acid): −1.7
ER (expression ratio) gene cysJ (E. coli K12 genes; 30 μg/mL ursolic acid): −3.3
ER (expression ratio) gene cysK (E. coli K12 genes; 30 μg/mL ursolic acid): −3.3
ER (expression ratio) gene frvR (E. coli K12 genes; 30 μg/mL ursolic acid): −2
ER (expression ratio) gene gntU_1 (E. coli K12 genes; 30 μg/mL ursolic acid): −1.4
ER (expression ratio) gene hdeA (E. coli K12 genes; 30 μg/mL ursolic acid): −1.4
ER (expression ratio) gene hdeB (E. coli K12 genes; 30 μg/mL ursolic acid): −1.4
ER (expression ratio) gene narH (E. coli K12 genes; 30 μg/mL ursolic acid): −1.4
ER (expression ratio) gene pheM (E. coli K12 genes; 30 μg/mL ursolic acid): 1
ER (expression ratio) gene pheP (E. coli K12 genes; 30 μg/mL ursolic acid): −1.1
ER (expression ratio) gene rimL (E. coli K12 genes; 30 μg/mL ursolic acid): 1
ER (expression ratio) gene rmf (E. coli K12 genes; 30 μg/mL ursolic acid): 1
ER (expression ratio) gene rpml (E. coli K12 genes; 30 μg/mL ursolic acid): 1
ER (expression ratio) gene slp (E. coli K12 genes; 30 μg/mL ursolic acid): −1.6
ER (expression ratio) gene ugpB (E. coli K12 genes; 30 μg/mL ursolic acid): −1.5
ER (expression ratio) gene ybhG (E. coli K12 genes; 30 μg/mL ursolic acid): −1.4
ER (expression ratio) gene ybiK (E. coli K12 genes; 30 μg/mL ursolic acid): -2.2
ER (expression ratio) gene yeeD (E. coli K12 genes; 30 μg/mL ursolic acid): −1.4
ER (expression ratio) gene yeeE (E. coli K12 genes; 30 μg/mL ursolic acid): −2
ER (expression ratio) gene yhaD (E. coli K12 genes; 30 μg/mL ursolic acid): −2.6
ER (expression ratio) gene yhaF (E. coli K12 genes; 30 μg/mL ursolic acid): −2.4
ER (expression ratio) gene yhaG (E. coli K12 genes; 30 μg/mL ursolic acid): −2.2
ER (expression ratio) gene yhaU (E. coli K12 genes; 30 μg/mL ursolic acid): −4.2
ER (expression ratio) gene yjeB (E. coli K12 genes; 30 μg/mL ursolic acid): 1
